PubChem BioAssay (NCI)
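These data come from cells grown in 96-well plates and exposed to compound for 48 hours at five concentrations. GI50 is the concentration that inhibits growth by half. The concentration for full growth arrest is given as TGI.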

Assays:
Assay in all cases: NCI-60 cell line screen, 48 h
[1] = test system: 786-0 renal
[2] = test system: A498 renal
[3] = test system: A549 NSCLC
[4] = test system: ACHN renal
[5] = test system: BT-549 breast
[6] = test system: CAKI-1 renal
[7] = test system: COLO 205 colon
[8] = test system: DU-145 prostate
[9] = test system: EKVX NSCLC
[10] = test system: HCC-2998 colon
[11] = test system: HCT-116 colon
[12] = test system: HCT-15 colon
[13] = test system: HL-60(TB) leukemia
[14] = test system: HOP-62 NSCLC
[15] = test system: HOP-92 NSCLC
[16] = test system: HS 578T breast
[17] = test system: HT29 colon
[18] = test system: K-562 leukemia
[19] = test system: KM12 colon
[20] = test system: LOX IMVI melanoma
[21] = test system: MALME-3M melanoma
[22] = test system: MCF7 breast
[23] = test system: MDA-MB-231 breast
[24] = test system: MDA-MB-435
[25] = test system: NCI-H226 lung
[26] = test system: NCI-H23 lung
[27] = test system: NCI-H460 lung
[28] = test system: NCI-H522 lung
[29] = test system: NCI/ADR-RES ovarian
[30] = test system: OVCAR-3 ovarian
[31] = test system: OVCAR-4 ovarian
[32] = test system: OVCAR-5 ovarian
[33] = test system: OVCAR-8 ovarian
[34] = test system: PC-3 prostate
[35] = test system: RPMI-8226 leukemia
[36] = test system: RXF 393 renal
[37] = test system: SF-268 CNS
[38] = test system: SF-295 CNS
[39] = test system: SF-539 CNS
[40] = test system: SK-MEL-2 melanoma
[41] = test system: SK-MEL-28 melanoma
[42] = test system: SK-MEL-5 melanoma
[43] = test system: SK-OV-3 ovarian
[44] = test system: SN12C renal
[45] = test system: SNB-19 CNS
[46] = test system: SNB-75 CNS
[47] = test system: SW-620 colon
[48] = test system: T-47D breast
[49] = test system: TK-10 renal
[50] = test system: U251 CNS
[51] = test system: UACC-257 melanoma
[52] = test system: UACC-62 melanoma
[53] = test system: UO-31 renal
[54] = test system: CCRF-CEM leukemia
[55] = test system: IGROV1 ovarian
[56] = test system: MOLT-4 leukemia

`COC(=O)c1cc([N+](=O)[O-])cc([N+](=O)[O-])c1Cl` showed a GI50 [1] of 1.79 µM, a TGI [1] of 3.22 µM and a GI50 [2] of 17 µM. The TGI [2] was 30.7 µM, the GI50 [3] was 20.4 µM and the TGI [3] was 46.8 µM. The GI50 [4] was 1.76 µM, the TGI [4] was 3.21 µM and the GI50 [5] was 10.7 µM. It also gave a TGI [5] of 22.6 µM, a GI50 [6] of 1.73 µM and a TGI [6] of 3.28 µM. For the same compound, the GI50 [7] was 1.65 µM, the TGI [7] was 3.1 µM and the GI50 [8] was 2.3 µM. It also gave a TGI [8] of 6.6 µM, a GI50 [9] of 14.1 µM and a TGI [9] of 28.8 µM. It also gave a GI50 [10] of 14.4 µM, a TGI [10] of 28.3 µM and a GI50 [11] of 1.06 µM. It also gave a TGI [11] of 2.63 µM, a GI50 [12] of 2.19 µM and a TGI [12] of 5.44 µM. The GI50 [13] was 3.98 µM, the TGI [13] was 27.5 µM and the GI50 [14] was 2.65 µM. For the same compound, the TGI [14] was 8.09 µM, the GI50 [15] was 1.64 µM and the TGI [15] was 3.04 µM. It also gave a GI50 [16] of 2.28 µM, a TGI [16] of 5.86 µM and a GI50 [17] of 1.88 µM. For the same compound, the TGI [17] was 3.49 µM, the GI50 [18] was 2.24 µM and the TGI [18] was > 100 µM. It also gave a GI50 [19] of 11.3 µM, a TGI [19] of 23.6 µM and a GI50 [20] of 1.75 µM. For the same compound, the TGI [20] was 3.36 µM, the GI50 [21] was 1.95 µM and the TGI [21] was 4.1 µM. It also gave a GI50 [22] of 1.94 µM, a TGI [22] of 4.6 µM and a GI50 [23] of 2.34 µM. For the same compound, the TGI [23] was 5.79 µM, the GI50 [24] was 1.89 µM and the TGI [24] was 3.64 µM. It also gave a GI50 [25] of 3.58 µM, a TGI [25] of 13.9 µM and a GI50 [26] of 19.3 µM. The TGI [26] was 69.6 µM, the GI50 [27] was 13.1 µM and the TGI [27] was 39 µM. For the same compound, the GI50 [28] was 1.82 µM, the TGI [28] was 3.31 µM and the GI50 [29] was 2.8 µM. The TGI [29] was 8.71 µM, the GI50 [30] was 1.78 µM and the TGI [30] was 3.2 µM. The GI50 [31] was 1.76 µM, the TGI [31] was 3.17 µM and the GI50 [32] was 2.7 µM. For the same compound, the TGI [32] was 10.2 µM, the GI50 [33] was 2.01 µM and the TGI [33] was 4.38 µM. The GI50 [34] was 1.88 µM, the TGI [34] was 3.91 µM and the GI50 [35] was 2.4 µM. The TGI [35] was 5.66 µM, the GI50 [36] was 1.72 µM and the TGI [36] was 3.12 µM. For the same compound, the GI50 [37] was 12.7 µM, the TGI [37] was 25.4 µM and the GI50 [38] was 19.3 µM. The TGI [38] was 36.9 µM, the GI50 [39] was 1.98 µM and the TGI [39] was 4.22 µM. For the same compound, the GI50 [40] was 3.52 µM, the TGI [40] was 12.6 µM and the GI50 [41] was 1.94 µM. For the same compound, the TGI [41] was 4.08 µM, the GI50 [42] was 3.03 µM and the TGI [42] was 10.9 µM. The GI50 [43] was 17.5 µM, the TGI [43] was 31.3 µM and the GI50 [44] was 3.15 µM. It also gave a TGI [44] of 11 µM, a GI50 [45] of 17.4 µM and a TGI [45] of 34.5 µM. The GI50 [46] was 1.93 µM, the TGI [46] was 5.07 µM and the GI50 [47] was 1.87 µM. It also gave a TGI [47] of 3.52 µM, a GI50 [48] of 1.71 µM and a TGI [48] of 4.21 µM. For the same compound, the GI50 [49] was 2.48 µM, the TGI [49] was 6.48 µM and the GI50 [50] was 2.14 µM. The TGI [50] was 4.78 µM, the GI50 [51] was 1.58 µM and the TGI [51] was 2.98 µM. For the same compound, the GI50 [52] was 1.55 µM, the TGI [52] was 3.1 µM and the GI50 [53] was 1.86 µM. It also gave a TGI [53] of 3.95 µM.

`CC1SC(c2ccc(Cl)cc2)N(CCc2cccs2)C1=O` (configuration not stated) gave a GI50 [2] of 1.21 µM, a TGI [2] of 2.47 µM and a GI50 [3] of 2.07 µM. The TGI [3] was 7.41 µM, the GI50 [4] was 1.88 µM and the TGI [4] was 4.89 µM. The GI50 [5] was 1.49 µM, the TGI [5] was 2.81 µM and the GI50 [6] was 1.15 µM. The TGI [6] was 3.42 µM, the GI50 [54] was 2.14 µM and the TGI [54] was 11.3 µM. The GI50 [7] was 1.63 µM, the TGI [7] was 3.02 µM and the GI50 [8] was 1.83 µM. The TGI [8] was 4.87 µM, the GI50 [9] was 1.3 µM and the TGI [9] was 4.47 µM. It also gave a GI50 [10] of 1.55 µM, a TGI [10] of 3.4 µM and a GI50 [11] of 1.09 µM. The TGI [11] was 2.28 µM, the GI50 [12] was 1.56 µM and the TGI [12] was 3.59 µM. The GI50 [13] was 2.58 µM, the TGI [13] was 8.73 µM and the GI50 [14] was 1.61 µM. It also gave a TGI [14] of 3.16 µM, a GI50 [15] of 0.855 µM and a TGI [15] of 2.2 µM. For the same compound, the GI50 [16] was 1.53 µM, the TGI [16] was 4.1 µM and the GI50 [17] was 1.48 µM. The TGI [17] was 3.14 µM, the GI50 [55] was 1.8 µM and the TGI [55] was 5.77 µM. The GI50 [19] was 1.52 µM, the TGI [19] was 3.36 µM and the GI50 [20] was 1.23 µM. The TGI [20] was 2.49 µM, the GI50 [21] was 2.12 µM and the TGI [21] was 4.05 µM. For the same compound, the GI50 [22] was 2.11 µM, the TGI [22] was 6.23 µM and the GI50 [23] was 1.55 µM. For the same compound, the TGI [23] was 3.28 µM, the GI50 [24] was 1.51 µM and the TGI [24] was 3.06 µM. For the same compound, the GI50 [56] was 2.46 µM, the TGI [56] was 9.11 µM and the GI50 [25] was 1.5 µM. For the same compound, the TGI [25] was 3.26 µM, the GI50 [26] was 1.48 µM and the TGI [26] was 3.85 µM. It also gave a GI50 [27] of 1.56 µM, a TGI [27] of 3.26 µM and a GI50 [28] of 1.34 µM. For the same compound, the TGI [28] was 2.75 µM, the GI50 [29] was 1.39 µM and the TGI [29] was 3.2 µM. The GI50 [30] was 1.42 µM, the TGI [30] was 2.74 µM and the GI50 [31] was 1.19 µM. For the same compound, the TGI [31] was 2.44 µM, the GI50 [32] was 1.85 µM and the TGI [32] was 4.56 µM. The GI50 [33] was 1.93 µM, the TGI [33] was 4.08 µM and the GI50 [34] was 1.75 µM. The TGI [34] was 5.07 µM, the GI50 [35] was 1.33 µM and the TGI [35] was 4.55 µM. For the same compound, the GI50 [36] was 1.56 µM, the TGI [36] was 2.94 µM and the GI50 [37] was 1.55 µM. It also gave a TGI [37] of 3.49 µM, a GI50 [38] of 1.23 µM and a TGI [38] of 2.53 µM. It also gave a GI50 [39] of 1.72 µM, a TGI [39] of 3.21 µM and a GI50 [40] of 1.36 µM. It also gave a TGI [40] of 2.72 µM, a GI50 [41] of 1.58 µM and a TGI [41] of 2.99 µM. For the same compound, the GI50 [42] was 1.43 µM, the TGI [42] was 2.75 µM and the GI50 [43] was 2.05 µM. It also gave a TGI [43] of 5.79 µM, a GI50 [44] of 1.7 µM and a TGI [44] of 3.15 µM. For the same compound, the GI50 [45] was 1.65 µM, the TGI [45] was 3.31 µM and the GI50 [46] was 2.05 µM. It also gave a TGI [46] of 5.99 µM, a GI50 [47] of 1.54 µM and a TGI [47] of 3.22 µM. The GI50 [48] was 1.29 µM, the TGI [48] was 6.64 µM and the GI50 [49] was 1.68 µM. The TGI [49] was 3.4 µM, the GI50 [50] was 1.63 µM and the TGI [50] was 3.18 µM. It also gave a GI50 [51] of 1.99 µM, a TGI [51] of 4.23 µM and a GI50 [52] of 1.05 µM. The TGI [52] was 2.35 µM.
